Source: patent US20230131427A1, “FUNGICIDAL COMPOSITIONS” (SYNGENTA CROP PROTECTION AG, priority 2020, published 2023)
Like-named read-outs stand apart in the source and are kept apart here.

Tests used:
[1] = system: Phakopsora pachyrhizi; assay: Example B5: preventative activity against Phakopsora pachyrhizi (soybean rust), whole soybean plants sprayed, leaf disks inoculated; format: in vivo; conditions: for inhibition at 225 g/ha / inhibition at 450 g/ha / inhibition at 22.5 g/ha / inhibition at 45 g/ha / inhibition at 90 g/ha / inhibition at 2.25 g/ha / inhibition at 4.5 g/ha / inhibition at 18 g/ha: Phakopsora pachyrhizi, foliar
Procedure: Whole soybean plants are treated with the recited active ingredients 4 weeks after planting. 1 day after spraying leaf disks are cut from the first trifoliate leaf. Five repetitions at each rate are conducted. The leaf disks are inoculated with Phakopsora pachyrhizi (Asian soybean rust) one day after treatment.
Evaluation of the leaf disks is conducted 11 to 14 days after inoculation and the activity is derived from the relation of the treated vs untreated, infested check (100=no disease, no damage to the leaf, 0=high infestation, leaf damaged heavily). The rates of the active ingredients used are given in the tables as g active ingredient (a.i.)/ha.

[2] = system: Glomerella lagenarium syn. Colletotrichum lagenarium; assay: Example B1: mixtures, preventative activity against Glomerella lagenarium syn. Colletotrichum lagenarium, liquid culture; format: cell-based; conditions: component B alone; for inhibition at 0.1 ppm / inhibition at 0.3 ppm: Colletotrichum orbiculare, read-out: Activity (%) B
Excerpt: (§1) This occurs whenever the action of an active ingredient combination is greater than the sum of the actions of the individual components. The action to be expected E for a given active ingredient combination obeys the so-called COLBY formula and can be calculated as follows (COLBY, S. R. “Calculating synergistic and antagonistic responses of herbicide combination”. Weeds, Vol. 15, pages 20-22; 1967):
(§2) If the action actually observed (O) is greater than the expected action (E), then the action of the combination is super-additive, i.e. there is a synergistic effect. In mathematical terms, synergism corresponds to a positive value for the difference of (O-E). In the case of purely complementary addition of activities (expected activity), said difference (O-E) is zero. A negative value of said difference (O-E) signals a loss of activity compared to the expected activity.
(§3) Conidia of the fungus from cryogenic storage were directly mixed into nutrient broth (PDB potato dextrose broth). A DMSO solution of the test compounds was placed into a microtiter plate (96-well format) and the nutrient broth containing the fungal spores was added to it.
(§4) Fungicidal activity was evaluated on a 100-0 scale (100=no disease growth; 0=well completely covered by mycelium).

[3] = system: Septoria glycines; assay: Example B2: mixtures, preventative activity against Septoria glycines (brown spot), liquid culture; format: cell-based; conditions: component B alone
Excerpt: as §1, §2
as §3, with “fungus harvested” for “fungus”, “a fresh culture grown on artificial media,” for “cryogenic storage”
as §4

[4] = system: Septoria tritici; assay: Example B3: mixtures, preventative activity against Septoria tritici (leaf blotch), liquid culture; format: cell-based; conditions: component B alone
Excerpt: as §1, §2, §3, §4

[5] = active ingredient alone, 22.5 g/ha, read-out: Observed Activity (%) (% of untreated)
[6] = active ingredient alone, 45 g/ha, read-out: Observed Activity (%) (% of untreated)
[7] = active ingredient alone, 90 g/ha, read-out: Observed Activity (%) (% of untreated)
[8] = applied alone, 22.5 g/ha, read-out: Observed Activity (% of untreated) against Phakopsora pachyrhizi
[9] = applied alone, 45 g/ha, read-out: Observed Activity (% of untreated) against Phakopsora pachyrhizi
[10] = applied alone, 90 g/ha, read-out: Observed Activity (% of untreated) against Phakopsora pachyrhizi
[11] = Septoria glycines, 0.1 ppm, 100-0 scale, read-out: Activity (%) B
[12] = Septoria glycines, 0.3 ppm, 100-0 scale
[13] = Zymoseptoria tritici, 0.1 ppm, 100-0 scale, read-out: Activity (%) B
[14] = read-out: Observed Activity (% of untreated) against Phakopsora pachyrhizi
[15] = read-out: Observed Activity (%) (% of untreated) against Phakopsora pachyrhizi

CC(Cc1ccc(C(C)(C)C)cc1)CN1CCCCC1 (stereo not drawn) [Fenpropidin]
inhibition at 225 g/ha ([1]; applied alone, 225 g/ha, read-out: Observed Activity (% of untreated) against Phakopsora pachyrhizi): 72% | inhibition at 225 g/ha ([1]; applied alone, 225 g/ha, read-out: Observed Activity (%) (% of untreated) against Phakopsora pachyrhizi): 72% | inhibition at 450 g/ha ([1]; applied alone, 450 g/ha, read-out: Observed Activity (% of untreated) against Phakopsora pachyrhizi): 77% | inhibition at 450 g/ha ([1]; applied alone, 450 g/ha, read-out: Observed Activity (%) (% of untreated) against Phakopsora pachyrhizi): 77%

S1SSSSSSS1 [sulphur]
inhibition at 0.1 ppm ([2]; 0.1 ppm): 0% | inhibition at 0.3 ppm ([2]; 0.3 ppm): 0%

OC(Cn1cncn1)(c1ccc(F)cc1)c1ccccc1F (stereo not drawn) [flutriafol]
Activity (%) B ([3]; 0.1 ppm): 20% | Activity (%) B ([3]; 0.3 ppm): 70%

CC1COC(Cn2cncn2)(c2ccc(Oc3ccc(Cl)cc3)cc2Cl)O1 (stereo not drawn) [Difenoconazole]
inhibition at 22.5 g/ha [1, 5]: 3% | inhibition at 45 g/ha [1, 6]: 10% | inhibition at 90 g/ha [1, 7]: 24% | inhibition at 22.5 g/ha [1, 8]: 3% | inhibition at 45 g/ha [1, 9]: 10% | inhibition at 90 g/ha [1, 10]: 24%

Mancozeb
Observed Activity (% of untreated) against Phakopsora pachyrhizi ([1]; applied alone, 225 g/ha): 20% | Observed Activity (% of untreated) against Phakopsora pachyrhizi ([1]; applied alone, 450 g/ha): 34%

COc1ccnc(C(=O)N[C@@H](C)C(=O)O[C@@H](C)[C@H](c2ccc(F)cc2C)C(C)C)c1OCOC(C)=O [[(1S,2S)-2-(4-fluoro-2-methyl-phenyl)-1,3-dimethyl-butyl](2S)-2-[[3-(acetoxymethoxy)-4-methoxy-pyridine-2-carbonyl]amino]propanoate]
inhibition at 0.1 ppm ([2]; 0.1 ppm): 20% | inhibition at 0.3 ppm ([2]; 0.3 ppm): 70%

CCC(=O)Oc1c(OC)ccnc1C(=O)N[C@@H](C)C(=O)O[C@@H](C)[C@@H](C)c1ccccc1C [[(1S,2S)-1-methyl-2-(o-tolyl)propyl](2S)-2-[(4-methoxy-3-propanoyloxy-pyridine-2-carbonyl)amino]propanoate, reference compound]
inhibition at 0.03 ppm ([4]; Zymoseptoria tritici, 72 h, 0.03 ppm, 72 hrs, read-out: Activity (%) B): 50% | inhibition at 0.06 ppm ([4]; Zymoseptoria tritici, 72 h, 0.06 ppm): 70% | inhibition at 0.03 ppm ([3]; Septoria glycines, 0.03 ppm, 100-0 scale, read-out: Activity (%) B): 0% | inhibition at 0.06 ppm ([3]; Septoria glycines, 0.06 ppm, 100-0 scale): 0%

CC(Cc1ccc(C(C)(C)C)cc1)CN1C[C@@H](C)O[C@@H](C)C1 (stereo partly drawn) [fenpropimorph]
inhibition at 0.1 ppm [3, 11]: 20% | inhibition at 0.1 ppm ([3]; Septoria glycines, 0.1 ppm, read-out: Activity (%) B): 20% | inhibition at 0.3 ppm ([3]; Septoria glycines, 0.3 ppm): 50% | inhibition at 0.3 ppm [3, 12]: 50%

COC(=O)N(OC)c1ccccc1COc1ccn(-c2ccc(Cl)cc2)n1 [pyraclostrobin, reference compound]
inhibition at 2.25 g/ha ([1]; active ingredient alone, 2.25 g/ha, read-out: Observed Activity (%) (% of untreated)): 0% | inhibition at 4.5 g/ha ([1]; active ingredient alone, 4.5 g/ha, read-out: Observed Activity (%) (% of untreated)): 0% | inhibition at 18 g/ha ([1]; active ingredient alone, 18 g/ha, read-out: Observed Activity (%) (% of untreated)): 13% | inhibition at 2.25 g/ha ([1]; applied alone, 2.25 g/ha, read-out: Observed Activity (% of untreated) against Phakopsora pachyrhizi): 0% | inhibition at 4.5 g/ha ([1]; applied alone, 4.5 g/ha, read-out: Observed Activity (% of untreated) against Phakopsora pachyrhizi): 0% | inhibition at 18 g/ha ([1]; applied alone, 18 g/ha, read-out: Observed Activity (% of untreated) against Phakopsora pachyrhizi): 13% | Observed Activity (% of untreated) against Phakopsora pachyrhizi ([1]; applied alone, 9 g/ha): 1%

CC(Cc1ccc(C(C)(C)C)cc1)CN1CCCCC1 (stereo not drawn) [fenpropidin]
inhibition at 0.1 ppm [4, 13]: 0% | inhibition at 0.3 ppm ([4]; Zymoseptoria tritici, 0.3 ppm, 100-0 scale, read-out: Activity (%) B): 0%

O=C(O)CNCP(=O)(O)O [Glyphosate]
inhibition at 45 g/ha [1, 14]: 1% | inhibition at 90 g/ha [1, 14]: 0% | inhibition at 45 g/ha [1, 15]: 1% | inhibition at 90 g/ha [1, 15]: 0%

[Cl-].[Cu+2].[Cu+2].[OH-].[OH-].[OH-] [copper oxychloride, reference compound]
Activity (%) B ([2]; 0.1 ppm): 0% | Activity (%) B ([2]; 0.3 ppm): 0% | Observed Activity (% of untreated) against Phakopsora pachyrhizi ([1]; applied alone, 22.5 g/ha): 2% | Observed Activity (% of untreated) against Phakopsora pachyrhizi ([1]; applied alone, 45 g/ha): 5%

CCOC(=O)C1CC(=O)C(=C(O)C2CC2)C(=O)C1 (stereo not drawn) [trinexapac-ethyl, reference compound]
inhibition at 0.1 ppm ([2]; 0.1 ppm): 0% | inhibition at 0.3 ppm ([2]; 0.3 ppm): 0% | inhibition at 22.5 g/ha [1, 8]: 0% | inhibition at 22.5 g/ha ([1]; applied alone, 22.5 g/ha, read-out: Observed Activity (%) (% of untreated) against Phakopsora pachyrhizi): 0% | inhibition at 45 g/ha [1, 9]: 0% | inhibition at 45 g/ha ([1]; applied alone, 45 g/ha, read-out: Observed Activity (%) (% of untreated) against Phakopsora pachyrhizi): 0%

CO/C=C(/C(=O)OC)c1ccccc1COc1cccc(C(F)(F)F)n1 [picoxystrobin]
Activity (%) B ([2]; 0.1 ppm): 90% | Activity (%) B ([2]; 0.3 ppm): 90%

CC(O)(Cn1cncn1)c1ccc(Oc2ccc(Cl)cc2)cc1C(F)(F)F (stereo not drawn) [mefentrifluconazole, reference compound]
Observed Activity (% of untreated) against Phakopsora pachyrhizi ([1]; applied alone, 22.5 g/ha): 1% | Observed Activity (%) (% of untreated) against Phakopsora pachyrhizi ([1]; applied alone, 22.5 g/ha): 1% | Observed Activity (% of untreated) against Phakopsora pachyrhizi ([1]; applied alone, 45 g/ha): 20% | Observed Activity (%) (% of untreated) against Phakopsora pachyrhizi ([1]; applied alone, 45 g/ha): 20%

CC(C1CC1)C(O)(Cn1cncn1)c1ccc(Cl)cc1 (stereo not drawn) [cyproconazole, reference compound]
inhibition at 0.1 ppm ([4]; Zymoseptoria tritici, 72 h, 0.1 ppm, 72 hrs, 100=no disease growth, read-out: Activity (%) B): 20% | inhibition at 0.3 ppm ([4]; Zymoseptoria tritici, 72 h, 0.3 ppm, 72 hrs, read-out: Activity (%) B): 50% | inhibition at 0.1 ppm [4, 13]: 20% | inhibition at 22.5 g/ha [1, 5]: 15% | inhibition at 45 g/ha [1, 6]: 69% | inhibition at 90 g/ha [1, 7]: 84% | inhibition at 22.5 g/ha [1, 8]: 15% | inhibition at 45 g/ha [1, 9]: 69% | inhibition at 90 g/ha [1, 10]: 84% | inhibition at 0.1 ppm [3, 11]: 50% | inhibition at 0.3 ppm ([3]; Septoria glycines, 0.3 ppm): 70% | inhibition at 0.3 ppm [3, 12]: 70%

CO/C=C(/C(=O)OC)c1ccccc1Oc1cc(Oc2ccccc2C#N)ncn1 [azoxystrobin, reference compound]
Observed Activity (%) (% of untreated) ([1]; active ingredient alone, 2.25 g/ha): 0% | Observed Activity (%) (% of untreated) ([1]; active ingredient alone, 4.5 g/ha): 15% | Observed Activity (%) (% of untreated) ([1]; active ingredient alone, 9 g/ha): 23% | Observed Activity (%) (% of untreated) ([1]; active ingredient alone, 18 g/ha): 9% | Observed Activity (% of untreated) against Phakopsora pachyrhizi ([1]; applied alone, 2.25 g/ha): 0% | Observed Activity (% of untreated) against Phakopsora pachyrhizi ([1]; applied alone, 4.5 g/ha): 15% | Observed Activity (% of untreated) against Phakopsora pachyrhizi ([1]; applied alone, 9 g/ha): 23% | Observed Activity (% of untreated) against Phakopsora pachyrhizi ([1]; applied alone, 18 g/ha): 9%

CC(C)c1ccc(Cl)cc1CN(C(=O)c1c(C(F)F)nn(C)c1F)C1CC1 [Isoflucypram]
Observed Activity (% of untreated) against Phakopsora pachyrhizi ([1]; applied alone, 2.25 g/ha): 2% | Observed Activity (% of untreated) against Phakopsora pachyrhizi ([1]; applied alone, 4.5 g/ha): 1% | Observed Activity (% of untreated) against Phakopsora pachyrhizi ([1]; applied alone, 9 g/ha): 0%

O=C(Nc1ccccc1F)c1ccc(-c2noc(C(F)(F)F)n2)cc1 [N-(2-fluorophenyl)-4-[5-(trifluoromethyl)-1,2,4-oxadiazol-3-yl]benzamide]
inhibition at 10 ppm ([4]; Zymoseptoria tritici, 72 h, 10 ppm): 0% | inhibition at 20 ppm ([4]; Zymoseptoria tritici, 72 h, 20 ppm): 0% | inhibition at 10 ppm ([3]; Septoria glycines): 0% | inhibition at 10 ppm ([3]; Septoria glycines, 100-0 scale): 0% | inhibition at 20 ppm ([3]; Septoria glycines): 0% | inhibition at 20 ppm ([3]; Septoria glycines, 100-0 scale): 0%

CC1(C)N=C(c2cnc3ccccc3c2)c2ccccc2C1(F)F [quinofumelin]
Activity (%) B ([4]; 0.1 ppm, 100-0 scale): 0% | Activity (%) B ([4]; 0.3 ppm, 100-0 scale): 0%

CC(C)C1C2CCC1c1c(NC(=O)c3cn(C)nc3C(F)F)cccc12 (stereo not drawn) [isopyrazam]
Activity (%) B ([4]; 0.1 ppm, 100-0 scale): 50% | Activity (%) B ([4]; 0.1 ppm, 72 hrs, 100=no disease growth): 50% | Activity (%) B ([4]; 0.3 ppm, 100-0 scale): 70% | Activity (%) B ([4]; 0.3 ppm, 72 hrs): 70%
